Results from ChEMBL document CHEMBL2074132, “Functional characterization of the hepatic sodium-dependent taurocholate transporter stably transfected into an immortalized liver-derived cell line and V79 fibroblasts” (Eur J Cell Biol, 1996).

Assays:
Type in all cases: functional, cell-based
[1] = target: T1, Hepatic sodium/bile acid cotransporter (Rattus norvegicus, UniProt P26435); assay: TP_TRANSPORTER: uptake in Ntcp-expressing HPCT-1E3 cells
T1 sequence (P26435 whole entry): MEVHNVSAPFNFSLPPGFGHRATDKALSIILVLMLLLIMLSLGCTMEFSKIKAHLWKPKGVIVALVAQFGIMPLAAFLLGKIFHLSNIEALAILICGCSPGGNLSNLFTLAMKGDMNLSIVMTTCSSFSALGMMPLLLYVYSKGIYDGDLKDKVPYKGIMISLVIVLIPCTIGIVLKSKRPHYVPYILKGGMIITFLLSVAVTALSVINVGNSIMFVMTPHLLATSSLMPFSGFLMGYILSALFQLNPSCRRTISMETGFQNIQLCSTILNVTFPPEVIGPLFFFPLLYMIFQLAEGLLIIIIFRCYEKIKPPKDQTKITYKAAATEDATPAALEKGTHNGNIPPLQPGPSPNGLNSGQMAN

[2] = target: T1, Hepatic sodium/bile acid cotransporter; assay: TP_TRANSPORTER: inhibition of Taurocholate uptake (Taurocholate: 10 uM, GC: 100 uM) in Ntcp-expressing HPCT-1E3 cells; conditions: hpct-1e3, 100 µM
[3] = target: T1, Hepatic sodium/bile acid cotransporter; assay: TP_TRANSPORTER: inhibition of Taurocholate uptake (Taurocholate: 10 uM, Oligomycin: 0.01mg/mL) in Ntcp-expressing HPCT-1E3 cells

Row | Structure (SMILES) | Activity [1] | Activity [2] | Activity [3]
1 | CCCCNc1cc(C(=O)O)cc(S(N)(=O)=O)c1Oc1ccccc1 [BUMETANIDE] | is not a substrate [-] | – | –
2 | C[C@H](CCC(=O)NCC(=O)O)[C@H]1CC[C@H]2[C@@H]3[C@H](O)C[C@@H]4C[C@H](O)CC[C@]4(C)[C@H]3C[C@H](O)[C@]12C [GLYCOCHOLIC ACID] | is not a substrate [-] | inhibitor [(at a rough estimate) 60 % of control] | –
3 | CC[C@H]1/C=C/C=C/C[C@@H](C)[C@H](O)[C@@](C)(O)C(=O)[C@@H](C)[C@H](O)[C@@H](C)C(=O)[C@@H](C)[C@H](O)[C@@H](C)/C=C/C(=O)O[C@@H]2[C@H](C)[C@H](CC1)O[C@]1(CC[C@H](C)[C@H](C[C@@H](C)O)O1)[C@H]2C [OLIGOMYCIN] | – | – | inhibitor [(at a rough estimate) 10 % of control]
